Experimental data taken from patent US12110289B2, “Heterocyclic compounds, preparation methods and uses thereof” (InventisBio Co., Ltd., priority 2020, dated 2024).
Read-outs that look alike come from different tables or passages of the source.

Experiments:
[1] = system: Lung cancer cell line NCI-H358 containing KRas G12C mutation; experiment: Assay for cell proliferation (Cell-titer Glo, 5 days); type: cell-based, human; conditions: Homo sapiens, NCI-H358, 120 h, NCI-H358, 5 days, Cell-titer Glo; read-out: IC50 (nM), Inhibition of NCI-H358 Cell Proliferation
Procedure, shortened: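 NCI-H358 (KRas G12C) cells, 2000 per well, attached overnight at 37 °C, 5% CO2, then treated with compound for 5 days at 0.5% DMSO final. Proliferation measured by CellTiter-Glo luminescence after 10 min at RT.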

pooled human hepatocytes = experiment: Human hepatocyte clearance study; type: in vitro ADME
Method: (§1) The in vitro human hepatocyte clearance of compounds described here was studied using pooled human hepatocytes purchased from BioreclamationIVT (Westbury, NY, Cat #X008001, Lot #TQJ). The assay was conducted according to manufacturer's instruction. Briefly, 10 mM stock solutions of test compounds and positive control (Verapamil) were prepared in 100% DMSO. Thawing media (50 mL) used in the study consists of 31 mL Williams E medium (GIBCO Cat #12551-032), 15 mL isotonic percoll (GE Healthcare Cat #17-0891-09), 500 uL 100× GlutaMax (GIBCO Cat #35050), 750 uL HEPES (GIBCO Cat #15630-080), 2.5 mL FBS (Corning Cat #35-076-CVR), 50 uL human insulin (GIBCO Cat #12585-014) and 5 uL dexamethasone (NICPBP). Incubation media is made of Williams E medium supplemented with 1× GlutaMax. Both thawing medium and incubation medium (serum-free) were placed in a 37° C. water bath for at least 15 minutes prior to use. Compound stock solutions were diluted to 100 μM by combining 198 μL of 50% acetonitrile/50% water and 2 μL of 10 mM stock solution. Verapamil was use as positive control in the assay. Vials of cryopreserved hepatocytes were removed from storage and thawed in a 37° C. water bath with gentle shaking. Contents of the vial were poured into the 50 mL thawing medium conical tube. Vials were centrifuged at 100 g for 10 minutes at room temperature. […] […] […] The boiled hepatocytes were used to prepare negative samples. Aliquots of 198 μL hepatocytes were dispensed into each well of a 96-well non-coated plate. The plate was placed in the incubator on an orbital shaker at 500 rpm for approximately 10 minutes. Aliquots of 2 μL of the 100 μM test compound or positive control were added into respective wells of the non-coated 96-well plate to start the reaction. This assay was performed in duplicate. The plate was incubated in the incubator on an orbital shaker at 500 rpm for the designated time points. Twenty-five microliter of contents were transferred and mixed with 6 volumes (150 μL) of cold acetonitrile with IS (200 nM imipramine, 200 nM labetalol and 200 nM diclofenac) to terminate the reaction at time points of 0, 15, 30, 60, 90 and 120 minutes. Samples were centrifuged at 3,220 g for 25 minutes and aliquots of 150 μL of the supernatants were used for LC-MS/MS analysis. For data analysis, all calculations were carried out using Microsoft Excel. Peak areas were determined from extracted ion chromatograms. The in vitro half-life (t1/2) of parent compound was determined by regression analysis of the percent parent disappearance vs. time curve. […] Scaling factors for in vivo intrinsic clearance prediction using human hepatocytes are listed as: liver weight (g liver/kg body weight): 25.7; hepatocyte concentration (10^6 cells/g liver): 99; scaling factor: 2544.3.

[2] = Human hepatocyte clearance study; type: in vitro ADME; conditions: human, pooled cryopreserved human hepatocytes (suspension); for hepatocyte CLint at 1 µM: read-out: Human In vitro Clint (μl/min/10^6 cells); for half-life at 1 µM: read-out: Human In vitro T1/2; for CLint scaled at 1 µM: read-out: Human Scale-up Clint
Method: as §1

NCI-H358 xenograft = experiment: NSCLC H358 xenograft model, tumor volume; type: in vivo, BALB/c nude mice; conditions: Compound 145 at 5 mg/kg combined with carboplatin at 30 mg/kg; FIG. 4
Method: All the procedures related to animal handling, care and the treatment in this study were performed according to the guidelines approved by the Institutional Animal Care and Use Committee (IACUC) of SIPPER B&K following the guidance of the Association for Assessment and Accreditation of Laboratory Animal Care (AAALAC). At the time of routine monitoring, the animals were checked for any effects of tumor growth on normal behavior such as mobility, food and water consumption (by looking only), body weight gain/loss (body weights were measured twice weekly), eye/hair matting and any other abnormal effect. Death and observed clinical signs were recorded on the basis of the numbers of animals within each subset.
The NCI-H358, SW837, NCI-H2122 tumor cells were purchased from the American Type Culture Collection (ATCC). Cells were maintained in vitro as monolayer cultured in RPMI-1640 or DMEM medium supplemented with 10% fetal bovine serum, 50 IU/ml penicillin/streptomycin (GIBCO) at 37° C. in an atmosphere of 5% CO2 in air. The tumor cells were routinely sub cultured twice weekly by trypsin-EDTA treatment. The cells growing in an exponential growth phase were harvested and counted for tumor inoculation.
For tumor bearing models, female 6- to 8-week-old athymic BALB/c nude mice were used for human cancer cell lines. Each mouse was inoculated subcutaneously at the right flank with tumor cells (10×10^6) in 0.1 ml of PBS. The treatments were started when the average tumor size reached approximately 200-250 mm^3. Carboplatin, Cisplatin was injected twice a week by i.p. Vehicles and other test articles were given orally as a suspension by gavage once daily during the study or treatment period.
Tumor volume was calculated by measuring two perpendicular diameters using the following formula: (L×W 2)/2 in which L and W refer to the length and width tumor diameter, respectively. Results are expressed as mean and standard deviation of the mean.

[3] = working cell density 2 × 10^6 viable cells/mL
[4] = working cell density 0.5 × 10^6 viable cells/mL
[5] = working cell density 0.5 × 10^6 viable cells/mL, scaling factor 2544.3

Row | SMILES | IC50 [1] [nM] | Human Hepatocyte Remaining Percentage @ 120 min (%) (pooled human hepatocytes; [3]) | hepatocyte CLint at 1 µM [2, 3] [µL/min/1e6 cells] | half-life at 1 µM [2, 3] [h] | CLint scaled at 1 µM [2, 3] [mL/min/kg] | reduction of tumor volume, combined treatment vs either agent alone (NCI-H358 xenograft) | Human Hepatocyte Remaining Percentage @ 120 min (%) (pooled human hepatocytes; [4]) | hepatocyte CLint at 1 µM [2, 4] [µL/min/1e6 cells] | half-life at 1 µM [2, 4] [h] | CLint scaled at 1 µM [2, 5] [mL/min/kg]
1 | C=CC(=O)N1C[C@H](C)N(c2nc(=O)n(-c3c(F)cc4c(ncn4C)c3C(C)C)c3nc(-c4c(N)cccc4F)c(F)cc23)C[C@H]1C (atropisomer, axis not shown) [Compound 145] | 1.4 | 82.9 | 1 | 11.5 | 2.6 | much better reduction of tumor volume |  |  |  | 
2 | C=CC(=O)N1CCN(c2nc(=O)n(-c3c(C4CC4)nc(OCCN(C)C)nc3C3CC3)c3nc(-c4ccccc4F)c(F)cc23)[C@@H](C)C1 [Compound 21] | 29.9 |  |  |  |  |  | 90.6 | 1.8 | 13.1 | 4.5
3 | C=CC(=O)N1CCN(c2nc(=O)n(-c3c(C(C)C)nc(OCCN(C)C)nc3C(C)C)c3nc(-c4c(O)cccc4F)c(Cl)cc23)[C@@H](C)C1 [Compound 22] | 7.6 |  |  |  |  |  | 83.3 | 2.9 | 7.87 | 7.5
4 | C=CC(=O)N1CCN(c2nc(=O)n(-c3c(C(C)C)nc(OCCN(C)C)nc3C(C)C)c3nc(-c4c(N)cccc4F)c(Cl)cc23)[C@@H](C)C1 [Compound 23] | 6.9 |  |  |  |  |  | 82.4 | 2.5 | 9.23 | 6.4
5 | C=CC(=O)N1C[C@H](C)N(c2nc(=O)n(-c3c(C(C)C)nc(OCCN(C)C)nc3C(C)C)c3nc(-c4ccccc4F)c(Cl)cc23)C[C@H]1C [Compound 24] | 9.1 |  |  |  |  |  | 70.1 | 5.9 | 3.9 | 15.1
6 | C=CC(=O)N1CCN(c2nc(=O)n(-c3c(C4CC4)nc(C)nc3C3CC3)c3nc(-c4c(O)cccc4F)c(F)cc23)[C@@H](C)C1 [Compound 28] | 23.3 |  |  |  |  |  | 61.1 | 8.4 | 2.73 | 21.5
7 | C=CC(=O)N1CCN(c2nc(=O)n(-c3c(C4CC4)nc(C)nc3C3CC3)c3nc(-c4c(N)cccc4F)c(F)cc23)[C@@H](C)C1 [Compound 29] | 11.4 |  |  |  |  |  | 60.8 | 8.5 | 2.72 | 21.7
8 | C=CC(=O)N1CCN(c2nc(=O)n(-c3c(C4CC4)ncnc3C3CC3)c3nc(-c4c(O)cccc4F)c(F)cc23)[C@@H](C)C1 [Compound 40] | 7.5 | 20.7 | 12.7 | 0.91 | 32.3 |  |  |  |  | 
9 | C=CC(=O)N1CCN(c2nc(=O)n(-c3c(C4CC4)ncnc3C3CC3)c3nc(-c4c(N)cccc4F)c(F)cc23)[C@@H](C)C1 [Compound 41] | 6.9 | 38.9 | 8.2 | 1.41 | 20.9 |  |  |  |  | 
10 | C=CC(=O)N1C[C@H](C)N(c2nc(=O)n(-c3c(C4CC4)nc(C)nc3C3CC3)c3nc(-c4c(O)cccc4F)c(F)cc23)C[C@H]1C [Compound 52] | 22.8 |  |  |  |  |  | 65.3 | 7.3 | 3.17 | 18.5
11 | C=CC(=O)N1CCN(c2nc(=O)n(-c3ccc4c(ncn4C)c3C(C)C)c3nc(-c4ccccc4F)c(Cl)cc23)[C@@H](C)C1 [Compound 72] | 13.1 |  |  |  |  |  | 41.2 | 13.3 | 1.73 | 34
12 | C=CC(=O)N1CCN(c2nc(=O)n(-c3c(C4CC4)ncnc3C3CC3)c3nc(-c4c(N)cccc4F)c(Cl)cc23)[C@@H](C)C1 [Compound 124] | 2.4 | 37.5 | 8.5 | 1.35 | 21.7 |  |  |  |  | 
13 | C=CC(=O)N1CCN(c2nc(=O)n(-c3c(C4CC4)ncnc3C3CC3)c3nc(-c4c(O)cccc4F)c(Cl)cc23)[C@@H](C)C1 [Compound 125] | 6.1 | 16.5 | 14.5 | 0.8 | 36.8 |  |  |  |  | 
14 | C=CC(=O)N1C[C@H](C)N(c2nc(=O)n(-c3c(C4CC4)ncnc3C3CC3)c3nc(-c4c(O)cccc4F)c(Cl)cc23)C[C@H]1C [Compound 127] | 3.5 | 55.5 | 4.4 | 2.64 | 11.1 |  |  |  |  | 
15 | C=CC(=O)N1C[C@H](C)N(c2nc(=O)n(-c3c(C4CC4)ncnc3C3CC3)c3nc(-c4ccccc4F)c(Cl)cc23)C[C@H]1C [Compound 128] | 8.7 | 39.9 | 10.3 | 1.12 | 26.1 |  |  |  |  | 
